US6376506B1, “Sulfamide-metalloprotease inhibitors” (Syntex (U.S.A.) LLC, priority 1997, dated 2002)
Where a name gives a salt, the structure may show the parent alone.

Assays:
[1] = target: T1, human collagenase-3 catalytic domain (Homo sapiens, UniProt P45452); assay: MMP inhibition in vitro, human collagenase-3; format: biochemical; settings: MCA-Pro-Leu-Gly-Leu-DPA-Ala-Arg-NH2 hydrolysis at 37° C.; read-out: Collagenase-III IC50
T1 construct: After purification, the catalytic domain was released by treatment with 1 mM APMA for 1 hour at 37° C; ubiquitin (N, cleaved yes); made in house; host or cells: E. coli
Protocol: The propeptide and catalytic domain portion of human collagcenase-3 was expressed in E. Coli as an N-terminal fusion protein with ubiquitin. After purification, the catalytic domain was released by treatment with 1 mM APMA for 1 hour at 37° C., and then purified by zinc chelate chromatography.
(§1) The matrix metalloprotease inhibitory activity of compounds of this invention in vitro was determined based on the hydrolysis of MCA-Pro-Leu-Gly-Leu-DPA-Ala-Arg-NH2 (Bachem, Inc.) at 37° C. as described in Knight, C. G., et al., FEBS Lett., 296, 263-266 (1992).
(§2) The matrix metalloprotease enzyme was diluted with assay buffer (50 mM Tricine pH 7.5, 200 mM NaCl, 10 mM CaCl2, and 0.005% Brij-35) containing 10 μmole of above substrate dissolved in DMSO. Compounds of the invention dissolved in DMSO or only DMSO (control samples) were added such that the final DMSO concentration in all assays was 2.5%. The fluorescence changes were monitored with a Perkin-Elmer LS-50B flourimeter using an excitation wavelength of 328 nm and an emission wavelength of 393 nm.

[2] = target: T2, human collagenase-1 catalytic domain (Homo sapiens, UniProt P03956); assay: MMP inhibition in vitro, human collagenase-1; format: biochemical; settings: MCA-Pro-Leu-Gly-Leu-DPA-Ala-Arg-NH2 hydrolysis at 37° C.; read-out: Collagenase-I IC50
T2 construct: the collagenase-1 catalytic domain was released by treatment with 1 mM of aminophenylmercuric acetate (APMA); ubiquitin (cleaved yes); made in house; host or cells: E. coli
T2 sequence (P03956 100-269 limits assumed): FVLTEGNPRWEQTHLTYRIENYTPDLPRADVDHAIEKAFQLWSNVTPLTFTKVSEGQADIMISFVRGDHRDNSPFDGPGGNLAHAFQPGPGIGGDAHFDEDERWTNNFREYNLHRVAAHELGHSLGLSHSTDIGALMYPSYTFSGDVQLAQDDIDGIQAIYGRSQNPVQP
Protocol: The catalytic domain of human collagenase-1 was expressed as a fusion protein with ubiquitin in E. Coli as described in Gehring, E. R. et al., J. Biol. Chem., 270, 22507, (1995). After purification of the fusion protein, the collagenase-1 catalytic domain was released by treatment with 1 mM of aminophenylmercuric acetate (APMA) for 1 hour at 37° C. and then purified by zinc chelate chromatography.
as §1, §2

| IC50 [1] [nM] | IC50 [2] [nM] | melting point | Compound |
| --- | --- | --- | --- |
| 0.073 | 23 | 74.3 to 75.3 °C | CC(C)[C@@H](NS(=O)(=O)N1CCC(Oc2ccc(F)cc2)CC1)C(=O)NO [compound 179] |
|  |  | 124.5 to 125.5 °C | O=C(NO)C1(NS(=O)(=O)N2CCC(Oc3ccccc3)CC2)CCCC1 [compound 337, N-hydroxy-1-{[(4-phenoxy)piperidine-1-sulfonyl]amino}cyclopentane-1-carboxamide] |
| 18 | 20000 | 141 to 142.3 °C | CC(C)[C@@H](NS(=O)(=O)N1CCC(c2nc(-c3ccccc3)c[nH]2)CC1)C(=O)NO [compound 133] |
|  |  | 158.5 to 159.6 °C | CC(C)(C)[C@@H](NS(=O)(=O)N1CCN(c2ccc(Cl)cc2)CC1)C(=S)NO [compound 62, N-hydroxy-2-(R)-{[4-(4-chlorophenyl)piperazine-1-sulfonyl]amino}-3-methyl-3-methylthiobutyramide] |
|  |  | 142 to 144 °C | O=C(NO)[C@H]1CCCCN1S(=O)(=O)N1CCCC1 [compound 232, N-hydroxy-1-(pyrrolidine-1-sulfonyl)piperidine-2-(R)-carboxamide] |
| 1.6 | 9300 |  | C[C@@H](NS(=O)(=O)N1CCN(C(=O)Nc2ccc(Cl)cc2)CC1)C(=O)NO [compound 177, N-hydroxy-2-(R)-{[4-(4-chlorophenylaminocarbonyl)piperazine-1-sulfonyl]amino}propionamide] |
|  |  | 171.1 to 171.4 °C | O=C(NO)[C@H](NS(=O)(=O)N1CCC(Oc2ccc(Cl)cn2)CC1)C1CCCCC1 [compound 207, N-hydroxy-2-(R)-{[4-(5-chloropyridin-2-yloxy)piperidine-1-sulfonyl]amino}-2-cyclohexylacetamide] |
| 56 | 650 |  | CN(Cc1ccccc1)S(=O)(=O)N(CC(=O)NO)Cc1ccccc1 [compound 355] |
|  |  | 209 to 211 °C (dec.) | CC(NS(=O)(=O)N1CCc2c([nH]c3ccccc23)C1)C(=O)[O-].[Na+] (stereo not shown) |
| 0.2 | 130 |  | CN(C)C(=O)N1CCN(S(=O)(=O)N2CCC(C(=O)c3ccc(Cl)cc3)CC2)[C@@H](C(=O)NO)C1 [compound 298] |
|  |  | 67 to 70 °C | Cc1cc(C2=CCN(S(=O)(=O)N3CCN(C(=O)OCc4ccccc4)CC3C(=O)NO)CC2)ccc1F (racemic) [compound 381, N-hydroxy-4-benzyloxycarbonyl-1-[4-(4-fluoro-3-methylphenyl)-1,2,3,6-tetrahydropyridine-1-sulfonyl]piperazine-2-(RS)-carboxamide] |
|  |  | 90 to 92 °C | O=C(NO)[C@H](NS(=O)(=O)N1CCC(c2ccc(F)cc2)CC1)c1ccc(F)cc1 [compound 230, N-hydroxy-2-(R)-{[4-(4-fluorophenyl)piperidine-1-sulfonyl]amino}-2-(4-fluorophenyl)acetamide] |
| 2.1 | 170 |  | O=C(NO)C1(NS(=O)(=O)N2CCN(c3ccc(Cl)cn3)CC2)CCCCC1 [compound 342] |
| 890 | 2200 |  | CN(Cc1ccccc1)S(=O)(=O)N(CC(=O)O)Cc1ccccc1 [compound 430] |
|  |  | 185.7 to 186.7 °C | CC(C)(NS(=O)(=O)N1CCC(C(=O)c2ccc(Cl)cc2)CC1)C(=O)NO [compound 351, N-hydroxy-2-{[4-(4-chlorobenzoyl)piperidine-1-sulfonyl]amino}-2-methylpropionamide] |
|  |  | 202 to 205 °C | C[C@@H](NS(=O)(=O)N1CCC(C(=O)c2ccc(Oc3ccccc3)cc2)CC1)C(=O)NO [compound 148, N-hydroxy-2-(R)-{[4-(4-phenoxybenzoyl)piperidine-1-sulfonyl]amino}propionamide] |
|  |  | 192.5 to 192.7 °C | O=C(NO)C1(NS(=O)(=O)N2CCN(c3ccc(Cl)cc3)CC2)CCOCC1 [compound 339, N-hydroxy-4-{[4-(4-chlorophenyl)piperazine-1-sulfonyl]amino}tetrahydropyran-4-carboxamide] |
|  |  | 119 to 122 °C | C[C@@H](NS(=O)(=O)N1CCN(C(=O)Nc2ccc(Oc3ccccc3)cc2)CC1)C(=O)NO [compound 213, N-hydroxy-2-(R)-{[4-(4-phenoxyphenylaminocarbonyl)piperazine-1-sulfonyl]amino}propionamide] |
|  |  | 54.1 to 57.7 °C | COCCN(CC(=O)NO)S(=O)(=O)N1CCN(c2ccc(Cl)cc2)CC1 (as salt: TFA) [compound 16] |

Further lines, the molecule ahead of its results:

| Compound | IC50 [1] [nM] | IC50 [2] [nM] | melting point |
| --- | --- | --- | --- |
| C[C@H](C(=O)O)N(Cc1ccccc1)S(=O)(=O)NCc1ccccc1 [compound 431] | 6500 | > 50000 |  |
| CC(C)[C@@H](NS(=O)(=O)N1CCC(Oc2cccc(Cl)n2)CC1)C(=O)NO [compound 183, N-hydroxy-2-(R)-{[4-(6-chloropyridin-2-yloxy)piperidine-1-sulfonyl]amino}-3-methylbutyramide] |  |  | 81 to 96 °C |
| O=C(NO)C1CCCCN1S(=O)(=O)N1CCC(c2c[nH]c3cc(Cl)ccc23)CC1 (racemic) [compound 256] | 33 | 26000 | 143 to 151 °C |
| C[C@@H](NS(=O)(=O)N1CCC(Oc2ccc(Cl)cc2)CC1)C(=O)NO [compound 57, N-hydroxy-2-(R)-{[4-(4-chlorophenoxy)piperidine-1-sulfonyl]amino}propionamide] |  |  | 93 to 94 °C |
| O=C(NO)[C@@H](Cc1ccc(O)cc1)NS(=O)(=O)N1CCN(c2ccc(Cl)cn2)CC1 [compound 103, N-hydroxy-2-(R)-{[4-(5-chloropyridin-2-yl)piperazine-1-sulfonyl]amino}-3-(4-hydroxyphenyl)propionamide] |  |  | 142 °C |
| CC(C)[C@@H](NS(=O)(=O)N1CCN(c2ccc(Cl)cc2)CC1)C(=O)NO [compound 51, N-hydroxy-2-(R)-{[4-(4-chlorophenyl)piperazine-1-sulfonyl]amino}-3-methylbutyramide] | 2.6 | 490 | 154.1 to 154.8 °C |
| CC(C)[C@@H](NS(=O)(=O)N1CCC(c2ncc(-c3ccccc3)s2)CC1)C(=O)NO [compound 136, N-hydroxy-2-(R)-{[4-(5-phenylthiazol-2-yl)piperidine-1-sulfonyl]amino}-3-methylbutyramide] |  |  | 120 to 122.1 °C |
| C[C@@H](NS(=O)(=O)N1CCN(c2ccc(Cl)cc2)CC1)C(=O)O [compound 414] | 3400 | > 50000 |  |
| O=C(NO)C1CCCCN1S(=O)(=O)N1CC=C(c2ccc(Cl)cc2)CC1 (racemic) [compound 375, N-hydroxy-1-[4-(4-chlorophenyl)-1,2,3,6-tetrahydropyridine-1-sulfonyl]piperidine-2-(RS)-carboxamide] |  |  | 137.8 to 138.1 °C |
| C[C@H](NS(=O)(=O)N1CCC(C(=O)c2ccc(Cl)cc2)CC1)C(=O)NO [compound 125, N-hydroxy-2-(S)-{[4-(4-chlorobenzoyl)piperidine-1-sulfonyl]amino}propionamide] |  |  | 201.2 to 201.8 °C |
| COCCN(CC(=O)NO)S(=O)(=O)N1CCN(c2ccc(Cl)cc2)CC1 [compound 16] | 21 | 22000 |  |
| N#Cc1ccc2[nH]cc(C3CCN(S(=O)(=O)N4CCCC[C@@H]4C(=O)NO)CC3)c2c1 [compound 294] | 340 | > 50000 |  |
| CC(C)[C@H](C(=O)NO)N(CCCc1cccnc1)S(=O)(=O)N1CCC(Oc2ccc(Br)cc2)CC1 [compound 105] | 0.59 | 129 |  |
| CN(C)S(=O)(=O)N1CCN(S(=O)(=O)N2CCC(C(=O)c3ccc(Cl)cc3)CC2)[C@@H](C(=O)NO)C1 [compound 315] | 0.1 |  |  |
| O=C(NO)C1CCCCN1S(=O)(=O)N1CCC(c2c[nH]c3ccc(F)cc23)CC1 (racemic) [compound 254] | 181 | > 50000 |  |
| O=C(CNS(=O)(=O)N1CCN(c2cccc(Cl)c2)CC1)NO [compound 33, N-hydroxy-2-{[4-(3-chlorophenyl)piperazine-1-sulfonyl]amino}acetamide] |  |  | 138.1 to 138.6 °C |
| O=CN1CCN(S(=O)(=O)N2CCC(C(=O)c3ccc(Cl)cc3)CC2)C(C(=O)NO)C1 (racemic) [compound 262] | 0.13 | 88 |  |
| CC(=O)N1CCN(S(=O)(=O)N2CCC(C(=O)c3ccc(Cl)cc3)CC2)C(C(=O)NO)C1 (racemic) [compound 255] | 0.19 | 120 |  |
